Test system: B16 cells
Test: Test of whitening B16 cells (whiteness of cell pellets observed with the naked eye)
Assay type: cell-based
Settings: for Whiteness of Cells: cell pellets after five days; for EC (whiteness 3+): Mus musculus, whiteness of cells 3 + (gray), read-out: Concentration of the test compound to give whiteness of cells of being 3 + (gray)
Experimental: PMC was added to Eagle's MEM medium, to which a fetal calf serum had been added, in a concentration of 100, 50, 20 or 10 µM. 1 × 10⁵ B16 cells were inoculated into the medium. Three days after the inoculation, the medium was exchanged for a fresh one.
Standards of evaluation of whiteness of cells are as follows: 5 + : White 4 + : White to Gray 3 + : Gray 2 + : Gray to Black 1 + : Black (but somewhat paler than control) - : Black

Compound | Whiteness of Cells (Concentration 10 µM) | Whiteness of Cells (Concentration 20 µM) | Whiteness of Cells (Concentration 50 µM) | Whiteness of Cells (Concentration 100 µM) | EC (whiteness 3+)
Cc1c(C)c2c(c(C)c1O)CCC(C)(C)O2 [PMC, 2,2,5,7,8-Pentamethyl-6-hydroxychroman] | 1 + | 2 + | 3 + | 4 + | 50 µM
Cc1c2c(c(C(C)C)c(O)c1C(C)C)CCC(C)(C)O2 [(4), 2,2,8-Trimethyl-5,7-diisopropyl-6-hydroxychroman] | – | – | – | – | 20 µM
COC1(C)CCc2c(C)c(O)c(C)c(C)c2O1 (stereo not drawn) [(3), 2,5,7,8-Tetramethyl-2-methoxzy-6-hydroxychroman] | – | – | – | – | 50 µM
Cc1c(C)c2c(c(C)c1O)CCC(C)(CO)O2 (stereo not drawn) [(5), 2,5,7,8-Tetramethyl-6-hydroxy-2-hydroxymethylchroman] | – | – | – | – | 40 µM
CCOC(=O)CC1(C)CCc2c(C)c(O)c(C)c(C)c2O1 (stereo not drawn) [(6), Ethyl 2,5,7,8-tetramethyl-6-hydroxychroman-2-acetate] | – | – | – | – | 30 µM

From patent EP0445735A1, “Melanogenesis-inhibiting endermic preparation” (Sansho Seiyaku Co., Ltd., priority 1990, dated 1991)
